{"source": "patent US7824866B2", "about": "“Ligand for G-protein coupled receptor GPR72 and uses thereof” (Euroscreen S.A., priority 2006, dated 2010)", "note": "pEC50: −log10 of the molar value.", "data": [{"target": "T1, mouse GPR72 (Mus musculus, UniProt P30731)", "T1 construct": "expressed in transfected cells; host or cells: CHO-K1 cells coexpressing apoaequorin", "T1 sequence (P30731 18-423)": "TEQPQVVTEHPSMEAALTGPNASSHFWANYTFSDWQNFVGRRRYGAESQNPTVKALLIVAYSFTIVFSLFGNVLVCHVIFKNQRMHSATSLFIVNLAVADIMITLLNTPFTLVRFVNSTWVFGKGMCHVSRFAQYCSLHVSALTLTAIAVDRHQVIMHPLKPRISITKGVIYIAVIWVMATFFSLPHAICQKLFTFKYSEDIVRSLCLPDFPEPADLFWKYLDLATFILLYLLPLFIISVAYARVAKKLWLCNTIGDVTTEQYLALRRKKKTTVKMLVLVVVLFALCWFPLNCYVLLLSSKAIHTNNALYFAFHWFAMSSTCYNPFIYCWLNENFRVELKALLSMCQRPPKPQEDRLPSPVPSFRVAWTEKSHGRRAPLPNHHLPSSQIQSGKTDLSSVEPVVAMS", "assay": "aequorin intracellular calcium release assay, CHO-K1 cells expressing mouse GPR72", "type": "cell-based", "conditions": "CHO-K1 cells coexpressing mouse GPR72 and apoaequorin; FIG. 6", "description": "The aequorin assay takes advantage of the responsiveness of mitochondrial apoaequorin to intracellular calcium release induced by the activation of GPCRs (Stables et al., 1997, Anal. Biochem. 252:115-126; Detheux et al., 2000, J. Exp. Med., 192 1501-1508; both of which are incorporated herein by reference). Briefly, GPR72 polypeptide-expressing clones are transfected to coexpress mitochondrial apoaequorin and Gα16. Cells are incubated with 5 μM Coelenterazine H (Molecular Probes) for 4 hours at room temperature, washed in DMEM-F12 culture medium and resuspended at a concentration of 0.5×10^6 cells/ml. Cells are then mixed with test agonist molecules and light emission by the aequorin is recorded with a luminometer for 30 sec. Results are expressed as Relative Light Units (RLU). […]\nGPR72 expressing clones have been obtained by transfection of CHO-K1 cells to coexpressing mitochondrial apoaequorin and […], limiting dilution and selection by RT-PCR. […] A functional assay based on the luminescence of mitochondrial aequorin intracellular Ca^2+ release (Stables et al., 1997, Anal. Biochem. 252:115-126; incorporated herein by reference) was performed as described (Detheux et al., 2000, J. Exp. Med., 192 1501-1508; incorporated herein by reference). […] Results are expressed as Relative Light Units (RLU). […]", "values": [{"smiles": "CCCCC/C=C\\C/C=C\\C/C=C\\C/C=C\\CCCC(=O)O", "note": "[arachidonic acid, 5,8,11,14-all-cis-eicosatetraenoic acid]", "concentration at which the mouse GPR72 is specifically activated": "around 5 micromolar"}]}, {"target": "T2, human GPR72 (Homo sapiens, UniProt Q9NYM4)", "T2 sequence (Q9NYM4 17-423)": "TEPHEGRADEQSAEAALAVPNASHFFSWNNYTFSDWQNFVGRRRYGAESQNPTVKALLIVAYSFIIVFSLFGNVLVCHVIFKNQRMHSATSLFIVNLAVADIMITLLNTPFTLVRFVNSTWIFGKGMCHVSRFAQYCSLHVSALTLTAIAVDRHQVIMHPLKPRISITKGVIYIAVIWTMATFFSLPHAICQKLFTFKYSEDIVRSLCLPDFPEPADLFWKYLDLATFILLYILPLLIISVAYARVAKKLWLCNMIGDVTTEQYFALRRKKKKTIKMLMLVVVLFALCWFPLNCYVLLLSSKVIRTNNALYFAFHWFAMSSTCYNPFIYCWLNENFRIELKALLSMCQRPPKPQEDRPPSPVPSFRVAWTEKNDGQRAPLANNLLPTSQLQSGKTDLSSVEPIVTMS", "assay": "Aequorin-based functional assay: intracellular calcium release (luminescence) in CHO-K1 cells stably expressing human GPR72, mitochondrial apoaequorin and Galpha16", "type": "cell-based", "parameters": "expressed in transfected cells", "conditions": "not given", "values": [{"smiles": "CCCCC/C=C\\C/C=C\\C/C=C\\C/C=C\\CCCC(=O)O", "note": "[Eicosa-5Z,8Z,11Z,14Z-tetraenoic acid]", "pEC50": 5.30}, {"smiles": "CCCCC/C=C\\C/C=C\\C/C=C\\C/C=C\\CCCC(=O)NCC(=O)O", "note": "[N-arachidonoyl-glycine]", "pEC50": 5.46}, {"smiles": "CC/C=C\\C/C=C\\C/C=C\\CCCCCCCC(=O)O", "note": "[Octadeca-9Z,12Z,15Z-trienoic acid]", "pEC50": 5.33}]}, {"target": "T2, human GPR72", "assay": "Aequorin-based functional assay: intracellular calcium release (luminescence) in CHO-K1 cells stably expressing human GPR72, mitochondrial apoaequorin and Galpha16", "type": "cell-based", "parameters": "expressed in transfected cells", "conditions": "Figure 8, SAR of arachidonic acid on human GPR72 activation; CHO-K1 cells, aequorin; read-out: GPR72 EC50", "values": [{"smiles": "CC1=C(/C=C/C(C)=C\\C=C\\C(C)=C\\C(=O)O)C(C)(C)CCC1", "note": "[9-cis-Retinoic acid]", "pEC50": 6.40}, {"smiles": "CC1=C(/C=C/C(C)=C/C=C/C(C)=C/C(=O)O)C(C)(C)CCC1", "note": "[All-trans-retinoic acid]", "pEC50": 4.07}, {"smiles": "CC/C=C\\C/C=C\\C/C=C\\C/C=C\\C/C=C\\C/C=C\\CCC(=O)O", "note": "[Docosa-4Z,7Z,10Z,13Z,16Z,19Z-hexaenoic acid]", "pEC50": 5.70}, {"smiles": "CC/C=C\\C/C=C\\C/C=C\\C/C=C\\C/C=C\\CCCCCC(=O)O", "note": "[Docosa-7Z,10Z,13Z,16Z,19Z-pentaenoic acid]", "pEC50": 5.03}, {"smiles": "CC/C=C\\C/C=C\\C/C=C\\CCCCCCCCCCCC(=O)O", "note": "[Docosa-13Z,16Z,19Z-trienoic acid]", "pEC50": 4.60}, {"smiles": "CC/C=C\\C/C=C\\C/C=C\\C/C=C\\C/C=C\\CCCC(=O)O", "note": "[Eicosa-5Z,8Z,11Z,14Z,17Z-pentaenoic acid]", "pEC50": 5.48}, {"smiles": "CCCCCCCC/C=C\\C/C=C\\C/C=C\\CCCC(=O)O", "note": "[Eicosa-5Z,8Z,11Z-trienoic acid]", "pEC50": 5.20}, {"smiles": "CC/C=C\\C/C=C\\C/C=C\\C/C=C\\CCCCCCC(=O)O", "note": "[Eicosa-8Z,11Z,14Z,17Z-tetraenoic acid]", "pEC50": 5.22}, {"smiles": "CCCCC/C=C\\C/C=C\\C/C=C\\CCCCCCC(=O)O", "note": "[Eicosa-8Z,11Z,14Z-trienoic acid]", "pEC50": 4.36}, {"smiles": "CCCCC/C=C\\C/C=C\\CCCCCCCCCC(=O)O", "note": "[Eicosa-11Z,14Z-dienoic acid]", "pEC50": 4.75}, {"smiles": "CCCCC/C=C\\C/C=C\\C/C=C\\C/C=C\\CCCC(=O)NCC(O)CC(=O)O", "note": "(stereo not drawn) [N-arachidonoyl-3-hydroxy-γ-aminobutyric acid]", "pEC50": 6.15}, {"smiles": "CCCCC/C=C\\C/C=C\\C/C=C\\C/C=C\\CCCC(=O)N[C@@H](C)C(=O)O", "note": "[N-arachidonoyl-L-alanine]", "pEC50": 5.54}, {"smiles": "CCCCC/C=C\\C/C=C\\C/C=C\\C/C=C\\CCCC(=O)N[C@@H](CO)C(=O)O", "note": "[N-arachidonoyl-L-serine]", "pEC50": 5.52}, {"smiles": "CCCCC/C=C\\C/C=C\\C/C=C\\C/C=C\\CCCC(=O)NCCS(=O)(=O)O", "note": "[N-arachidonoyl-L-taurine]", "pEC50": 5.89}, {"smiles": "CCCCC/C=C\\C/C=C\\C/C=C\\C/C=C\\CCCC(=O)NCCCC(=O)O", "note": "[N-arachidonoyl-γ-aminobutyric acid]", "pEC50": 5.37}, {"smiles": "CCCCC/C=C\\C/C=C\\C/C=C\\CCCCC(=O)O", "note": "[Octadeca-6Z,9Z,12Z-trienoic acid]", "pEC50": 6.10}]}, {"target": "T2, human GPR72", "assay": "Aequorin-based functional assay: intracellular calcium release (luminescence) in CHO-K1 cells stably expressing human GPR72, mitochondrial apoaequorin and Galpha16", "type": "cell-based", "parameters": "expressed in transfected cells", "conditions": "Figure 9, additional PUFAs; CHO-K1 cells stably expressing human GPR72, aequorin; read-out: human GPR72 receptor EC50", "values": [{"smiles": "CC1=C(/C=C/C(C)=C/C=C/C(C)=C\\C(=O)O)C(C)(C)CCC1", "note": "[13-cis-Retinoic acid]", "pEC50": 4.80}, {"smiles": "CCCCC/C=C\\C/C=C\\C/C=C\\C/C=C\\CCCCCC(=O)O", "note": "[Docosa-7Z,10Z,13Z,16Z-tetraenoic acid]", "pEC50": 5.00}, {"smiles": "CCCCCC#CCC#CCC#CCC#CCCCC(=O)O", "note": "[Eicosa-5,8,11,14-tetraynoic acid]", "pEC50": 4.57}, {"smiles": "CCCCCCCCC#CCC#CCC#CCCCC(=O)O", "note": "[Eicosa-5,8,11-triynoic acid]", "pEC50": 4.92}, {"smiles": "CC/C=C\\C/C=C\\C/C=C\\CCCCCCCCCC(=O)O", "note": "[Eicosa-11Z,14Z,17Z-trienoic acid]", "pEC50": 4.60}, {"smiles": "CC/C=C\\C/C=C\\C/C=C\\C/C=C\\CCCCC(=O)O", "note": "[Octadeca-6Z,9Z,12Z,15Z-tetraenoic acid]", "pEC50": 4.13}]}, {"target": "T2, human GPR72", "assay": "Aequorin-based functional assay: intracellular calcium release (luminescence) in CHO-K1 cells stably expressing human GPR72, mitochondrial apoaequorin and Galpha16", "type": "cell-based", "parameters": "expressed in transfected cells", "conditions": "Figure 10, thiazolidinediones; CHO-K1 cells stably expressing human GPR72, aequorin; read-out: human GPR72 receptor EC50", "values": [{"smiles": "CC1(COc2ccc(CC3SC(=O)NC3=O)cc2)CCCCC1", "note": "(stereo not drawn) [Ciglitazone]", "pEC50": 4.46}, {"smiles": "O=C1NC(=O)C(Cc2ccc3cc(OCc4ccccc4F)ccc3c2)S1", "note": "(stereo not drawn) [MCC-555]", "pEC50": 4.60}]}, {"target": "T2, human GPR72", "assay": "aequorin intracellular calcium release assay, CHO-K1 cells expressing human GPR72", "type": "cell-based", "parameters": "expressed in transfected cells; host or cells: CHO-K1 cells coexpressing mitochondrial apoaequorin and a G alpha subunit (Gα16)", "conditions": "CHO-K1 cells coexpressing human GPR72 and apoaequorin; mock-transfected cells as control; FIG. 5", "description": "(§1) The aequorin assay takes advantage of the responsiveness of mitochondrial apoaequorin to intracellular calcium release induced by the activation of GPCRs (Stables et al., 1997, Anal. Biochem. 252:115-126; Detheux et al., 2000, J. Exp. Med., 192 1501-1508; both of which are incorporated herein by reference). Briefly, GPR72 polypeptide-expressing clones are transfected to coexpress mitochondrial apoaequorin and Gα16. Cells are incubated with 5 μM Coelenterazine H (Molecular Probes) for 4 hours at room temperature, washed in DMEM-F12 culture medium and resuspended at a concentration of 0.5×10^6 cells/ml. Cells are then mixed with test agonist molecules and light emission by the aequorin is recorded with a luminometer for 30 sec. Results are expressed as Relative Light Units (RLU). Controls include assays using […] not expressing GPR72 polypeptide (mock transfected), in order to exclude possible non-specific effects of the candidate compound.\n(§2) GPR72 expressing clones have been obtained by transfection of CHO-K1 cells to coexpressing mitochondrial apoaequorin and […], limiting dilution and selection by RT-PCR. Positive clones were used for biological extract library screening with porcine spleen extracts prepared as described above. A functional assay based on the luminescence of mitochondrial aequorin intracellular Ca^2+ release (Stables et al., 1997, Anal. Biochem. 252:115-126; incorporated herein by reference) was performed as described (Detheux et al., 2000, J. Exp. Med., 192 1501-1508; incorporated herein by reference). Briefly, cells were collected from plates in PBS containing 5 mM EDTA, pelleted and resuspended at 5×10^6 cells/ml in DMEM-F12 medium. Cells were incubated with 5 μM Coelenterazine H (Molecular Probes) for 4 hours at room temperature. Cells were then washed in DMEM-F12 medium and resuspended at a concentration of 0.5×10^6 cells/ml. Cells were then mixed with test agonist peptides or plates containing tissue extracts and the light emission was recorded for 30 sec using a Microlumat luminometer (Perkin Elmer). Results are expressed as Relative Light Units (RLU).\n(§3) After being identified from active porcine […] fraction, ability of arachidonic acid to trigger intracellular calcium release was tested on CHO-K1 cell lines coexpressing the human or the mouse GPR72 receptor and apoaequorin. We have used the aequorin assay as previously described in Detheux et al. (2000) J exp Med. 192, 1501-1508. […] Arachidonic acid was also able to activate specifically the mouse GPR72 at concentration around 5 micromolar (FIG. 6).\n(§4) PUFAs were tested on CHO-K1 cells stably expressing the human GPR72 for their ability to trigger intracellular calcium using aequorin. Obtained EC50 are in the 1-20 μM range (FIG. 7).", "values": [{"smiles": "CCCCC/C=C\\C/C=C\\C/C=C\\C/C=C\\CCCC(=O)O", "note": "[arachidonic acid, 5,8,11,14-all-cis-eicosatetraenoic acid]", "concentration at which the human GPR72 is specifically activated": "around 5 micromolar"}]}, {"target": "T2, human GPR72", "assay": "aequorin intracellular calcium release assay, CHO-K1 cells expressing human GPR72", "type": "cell-based", "parameters": "expressed in transfected cells; host or cells: CHO-K1 cells coexpressing mitochondrial apoaequorin and a G alpha subunit (Gα16)", "conditions": "human GPR72 receptor; FIG. 8", "description": "as §1, §2, §3, §4", "values": [{"smiles": "CCCCC/C=C\\C/C=C\\C/C=C\\C/C=C\\CCCC(=O)NCCS(=O)(=O)O", "note": "[N-arachidonoyl-L-taurine]", "activity on GPR72 (structure-activity relationship)": "active"}, {"smiles": "CCCCC/C=C\\C/C=C\\C/C=C\\C/C=C\\CCCC(=O)NCC(=O)O", "note": "[N-arachidonoyl-glycine]", "activity on GPR72 (structure-activity relationship)": "active"}, {"smiles": "CCCCC/C=C\\C/C=C\\C/C=C\\C/C=C\\CCCC(=O)OC", "note": "[arachidonic acid methyl ester]", "activity on GPR72 (structure-activity relationship)": "not active"}, {"smiles": "CCCCC/C=C\\C/C=C\\C/C=C\\C/C=C\\CCCC(=O)O", "note": "[arachidonic acid, 5,8,11,14-all-cis-eicosatetraenoic acid]", "activity on GPR72 (structure-activity relationship)": "active"}]}]}
